Assay results from patent US5840696A (priority 1997, dated 1998).

Key:
[1] = test system: conscious Sprague-Dawley rats; assay: intracerebroventricular (i.c.v.) injection in conscious rats: cardiovascular and renal responses; format: in vivo, rat
Protocol: Abbreviations are HR, heart rate; MAP, mean arterial pressure; V, urine flow rate; and UNa V, urinary sodium excretion. Statistical significance within each group was determined by a repeated measures analysis of variance followed by a Bonferroni multiple comparisons test; asterisks (a, b, or c) denote a significant change (p<0.05) from control within each group.
Anesthetized male Sprague-Dawley rats (275-300 g, Sprague-Dawley, Inc., Indianapolis, Ind.) were implanted with chronic arterial and venous cannulas and a bladder catheter in accordance with previously published methods (10, 12). For experiments in which drugs were administered i.c.v., a stainless steel cannula was stereotaxically implanted into the right lateral ventricle of rats under anesthesia at least 5-7 days prior to experimentation (11). On the morning of the study rats were placed in a rat holder which permits forward and backward movement and allows for collection of urine from the bladder catheter. Conscious rats were then infused i.v. with isotonic saline (50 μl/min) for the duration of the experiment. The arterial cannulae was then flushed and attached to a pressure transducer (Statham P23Db) and the urinary bladder catheter led to a collection beaker. After equilibration and stabilization of urine flow rate and urinary sodium excretion (approximately 2-3 hours) the experimental protocol described in each figure legend commenced. Intravenous and i.c.v. stock solutions of nociceptin and nor-binaltorphimine were prepared fresh in isotonic saline vehicle. […] Animal experimentation and care procedures were in accordance with the National Institutes of Health guidelines for the care and use of animals.

[2] = target: T1, central kappa-opioid receptors (Rattus norvegicus, UniProt P34975); assay: renal responses to i.c.v. peptide in rats pre-treated i.c.v. with nor-binaltorphimine; format: in vivo; conditions: peptide 10 μg i.c.v.; nor-binaltorphimine 1 μg i.c.v.
T1 construct: Anesthetized male Sprague-Dawley rats; from tissue; host or cells: central nervous system of conscious male Sprague-Dawley rats (in vivo, lateral cerebral ventricle injection)
From the text: Abbreviations are V, urine flow rate and UNa V, urinary sodium excretion.
For comparative purposes, the renal responses produced by central administration of the endogenous opioid peptide, dynorphin A, were also studied i.c.v.
Anesthetized male Sprague-Dawley rats (275-300 g, Sprague-Dawley, Inc., Indianapolis, Ind.) were implanted with chronic arterial and venous cannulas and a bladder catheter in accordance with previously published methods (10, 12). For experiments in which drugs were administered i.c.v., a stainless steel cannula was stereotaxically implanted into the right lateral ventricle of rats under anesthesia at least 5-7 days prior to experimentation (11). On the morning of the study rats were placed in a rat holder which permits forward and backward movement and allows for collection of urine from the bladder catheter. Conscious rats were then infused i.v. with isotonic saline (50 μl/min) for the duration of the experiment. The arterial cannulae was then flushed and attached to a pressure transducer (Statham P23Db) and the urinary bladder catheter led to a collection beaker. After equilibration and stabilization of urine flow rate and urinary sodium excretion (approximately 2-3 hours) the experimental protocol described in each figure legend commenced. […]

conscious rats = assay: lower-dose i.v. infusion of nociceptin (50 and 166 nanog/Kg/min) in conscious rats, renal function; format: in vivo, rat
From the text: These marked increases in urine flow rate occurred at doses approximately 120 fold lower than previously reported by Kapusta et al. (17). In order to confirm these more recent and complete studies of the present invention, nociceptin was obtained from three commercially available sources, Phoenix Pharmaceutical, Bachem Chemical and Peninsula Laboratories. […] Nociceptin from each of the sources above was studied at a single infusion rate in each group of six rats. […] These increases in urine flow were accompanied by a decrease in the excretion of urinary sodium (UNA V) as reported earlier (17).

[3] = test system: isolated rat aortic vascular rings; assay: vasorelaxant response of isolated rat aortic rings in vitro precontracted with U46619
Protocol: Aortic rings were precontracted with U46619, a thromboxane A2 mimic.
Rat aortic rings in vitro (with intact endothelium) were precontracted with […], a thromboxane A2 mimic.
Male rats (250-350g) were anesthetized with pentobarbital sodium (30 mg/Kg i.p). The rat lungs were quickly removed and immersed in cold (4° C.) Krebs-Henseleit (K-H) solution (composition mM: NaCl 118, KCl 4.7, CaCl2 2.5, KH2 PO4 1.2, NaHCO3 25, MgSO4 1.2, and dextrose 10). Pulmonary arteries (PA) were isolated and excess fat and connective tissue were removed. Vessels were cut into rings of about 2.5-3 mm in length and were mounted in organ baths containing 5 ml K-H solution. Two stainless steel hooks were inserted into the lumen of the pulmonary artery (PA), one was fixed while the other was connected to a transducer. The tissue bath solution was maintained at 37° C. and bubbled with a 95% O2 -5%CO2 mixture. The pulmonary arteries were equilibrated for 90 min with three changes of K-H solution and an optimal tension of 1 gr. applied. Contractions were measured isometrically with a force displacement transducer (FTO3, Grass, USA) and were recorded on a Grass model 7 polygraph. The contractile ability of each ring was then examined by exposure to 60 mM KCl, then washed and allowed to dilate to baseline tension. […] The integrity of the endothelium was determined by obtaining a maximal vasorelaxant response to ACh. […]

[4] = test system: systemic vascular bed of the anesthetized rat; assay: systemic vasodepressor response to bolus i.v. nociceptin in the anesthetized rat; format: in vivo
Protocol: N=number of animals. *p<0.05 when compared to corresponding control value.
Male rats (250-300 g) were anesthetized with pentobarbital sodium (30 mg/kg i.p.). Catheters were placed into a femoral artery and femoral vein for measurement of systemic […] blood pressure and administration of drugs, respectively. Cardiac output was calculated by using Columbus 2F thermodilution catheter placed fluoroscopically in the ascending aortic arch assess changes in temperature following a thermal reference injection of saline (0.2 ml) at room temperature into the right atrium via a jugular venous catheter. Changes in systemic arterial pressure were measured using a Gould P23Id pressure transducer and recorded on a Grass Model 7A recorder. Cardiac output was determined using a Columbus Cardiomax thermodilution cardiac output computer.
Values are means +/-SE; N=6. *p,0.05 compared with corresponding control (paired t test).

[5] = test system: systemic vascular bed of the anesthetized rat; conditions: literature (18); cited from earlier work
[6] = test system: constitutive nitric oxide synthase (cNOS); assay: influence of L-NAME on urine flow rate responses in conscious rats; conditions: L-NAME 30 mg/Kg i.v., 45 min before infusion
[7] = i.v. infusion 50 and 166 nanog/Kg/min
[8] = 0.3 ug, i.v. bolus, mean +/- SE, N=6
[9] = 1.0 ug, i.v. bolus, mean +/- SE, N=6
[10] = 3.0 ug, i.v. bolus, mean +/- SE, N=6

T1 sequence (P34975 whole entry): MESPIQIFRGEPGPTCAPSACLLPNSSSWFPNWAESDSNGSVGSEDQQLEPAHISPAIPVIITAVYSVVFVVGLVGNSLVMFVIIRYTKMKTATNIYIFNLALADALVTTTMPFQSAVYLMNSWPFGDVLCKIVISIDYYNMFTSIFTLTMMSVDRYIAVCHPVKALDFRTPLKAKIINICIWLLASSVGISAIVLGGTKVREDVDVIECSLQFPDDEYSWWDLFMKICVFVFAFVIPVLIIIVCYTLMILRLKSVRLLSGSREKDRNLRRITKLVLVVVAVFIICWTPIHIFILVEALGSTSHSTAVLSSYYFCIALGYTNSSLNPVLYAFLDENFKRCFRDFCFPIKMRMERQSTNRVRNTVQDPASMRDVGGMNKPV

CC(C)C[C@H](NC(=O)[C@H](CCCCN)NC(=O)[C@H](CCCN=C(N)N)NC(=O)[C@H](C)NC(=O)[C@H](CO)NC(=O)[C@H](CCCCN)NC(=O)[C@H](CCCN=C(N)N)NC(=O)[C@H](C)NC(=O)CNC(=O)[C@@H](NC(=O)[C@H](Cc1ccccc1)NC(=O)CNC(=O)CNC(=O)[C@@H](N)Cc1ccccc1)[C@@H](C)O)C(=O)N[C@@H](C)C(=O)N[C@@H](CC(N)=O)C(=O)N[C@@H](CCC(N)=O)C(=O)O [nociceptin]
tachyphylaxis to the cardiovascular and renal responses ([1]; consecutive i.c.v. injection of the same dose (1, 10 or 30 μg)): did not develop | time of peak diuresis ([1]; i.c.v. 1 μg): 30 min | time of peak diuresis ([1]; i.c.v. 10 μg): 40 min | renal response (urine flow rate and urinary sodium excretion) ([1]; i.c.v. 10 μg, naive conscious rats): concurrent diuretic and antinatriuretic response | onset of diuresis compared with dynorphin A ([1]; i.c.v. 10 μg, p<0.05 at time 20 min): significantly delayed | diuretic response ([1]; i.c.v. 1, 10 or 30 μg): profound diuretic response | heart rate, mean arterial pressure and urinary sodium excretion ([1]; i.c.v. 1, 10 or 30 μg, versus group control): significant (p<0.05) decreases | duration of bradycardia ([1]; i.c.v., all doses): approximately 30 minutes | duration of hypotensive response ([1]; i.c.v., all doses): ~40 min | onset of bradycardia and hypotensive response ([1]; i.c.v., all doses (1, 10, 30 μg)): 1 to 3 min | minimum effective i.c.v. dose to evoke a change in urine flow rate and urinary sodium excretion ([1]; i.c.v., preliminary studies): 1 µg | effect of i.c.v. nor-binaltorphimine pretreatment on the diuresis and antinatriuresis produced by the peptide [2]: did not alter | doses producing increases in urine flow rate, lower than in preliminary studies / Kapusta et al. (17) (conscious rats; i.v. infusion): approximately 120 fold | baseline systemic arterial pressure and heart rate (conscious rats; [7]): did not alter baseline systemic arterial pressure and heart rate | duration of renal responses (conscious rats; [7]): approximately 90 min | excretion of urinary sodium (UNA V) (conscious rats; [7]): decrease | time of peak renal effect after start of infusion (conscious rats; [7]): 30 min | urine flow rate (V) (conscious rats; i.v. infusion 50 and 166 nanog/Kg/min, conscious rats): dose-dependent increase | aortic vasorelaxant response in the presence of inhibitors of nitric oxide formation and function ([3]; endothelial cell removal, methylene blue, L-NAME, L-NIO): blocked | vasorelaxant response after cycloxygenase blockade ([3]; meclofenamate): lack of an inhibitory effect | Cardiac Output [4, 8]: 111.3 ± 49.6 mL/min | Systemic Arterial Pressure [4, 8]: 150.0 +/- 15.5 mmHg | Systemic Vascular Resistance [4, 8]: 1.1 +/- 0.1 mmHg/ml/min | Cardiac Output [4, 9]: 102.8 ± 4.5 mL/min | Systemic Arterial Pressure [4, 9]: 141.0 +/- 17.8 mmHg | Systemic Vascular Resistance [4, 9]: 1.1 +/- 0.2 mmHg/ml/min | Cardiac Output [4, 10]: 96.8 ± 34.4 mL/min | Systemic Arterial Pressure [4, 10]: 109.6 +/- 19.8 mmHg | Systemic Vascular Resistance [4, 10]: 0.8 +/- 0.1 mmHg/ml/min | systemic vasodepressor response after L-NAME or L-NIO ([4]; 45 min after L-NAME or L-NIO): significantly inhibited | Cardiac Output ([4]; bolus i.v. doses): did not significantly alter cardiac output | systemic vasodepressor response after glybenclamide and meclofenamate ([4]; bolus i.v. injections, anesthetized rats): not inhibited | Systemic Arterial Pressure ([4]; bolus i.v. injections, pentobarbital-anesthetized rats): decreased systemic arterial pressure in a dose-dependant manner | decrease of systemic arterial pressure, sensitivity to naloxone [5]: naloxone-insensitive | increase in urine flow rate (V) in response to i.v. infusion after L-NAME [6]: significantly inhibited
